Biological target: Beta-lactamase (Enterobacter cloacae, UniProt P05364)
Assay: Inhibitory activity against Class C beta-lactamase

Chain of Beta-lactamase (P05364 whole entry): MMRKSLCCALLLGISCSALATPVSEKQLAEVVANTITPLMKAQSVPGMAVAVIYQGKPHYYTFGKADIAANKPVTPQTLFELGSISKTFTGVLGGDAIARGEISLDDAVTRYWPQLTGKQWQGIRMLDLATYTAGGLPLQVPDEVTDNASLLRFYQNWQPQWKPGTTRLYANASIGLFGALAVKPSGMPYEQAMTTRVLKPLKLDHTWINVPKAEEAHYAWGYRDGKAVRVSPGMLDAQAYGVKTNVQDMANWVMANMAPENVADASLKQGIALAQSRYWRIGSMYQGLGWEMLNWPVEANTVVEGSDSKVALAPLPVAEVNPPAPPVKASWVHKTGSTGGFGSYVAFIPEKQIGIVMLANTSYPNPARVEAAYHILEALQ

| IC50 [µM] | Structure (SMILES) |
| --- | --- |
| 0.038 | O=C(O)C1=C(c2ccccc2)CS(=O)(=O)[C@@H]2/C(=C\c3ccccn3)C(=O)N12 |
| 0.0047 | O=C(O)C1=C(I)CS(=O)(=O)[C@@H]2/C(=C\c3ccccn3)C(=O)N12 |
| 0.0907 | CS(=O)(=O)C1=C(C(=O)O)N2C(=O)/C(=C/c3ccccn3)[C@H]2S(=O)(=O)C1 |
| 0.059 | CSC1=C(C(=O)O)N2C(=O)/C(=C/c3ccccn3)[C@H]2S(=O)(=O)C1 |
| 6.34 | CN1CCN(C(=O)/C=C/C2=C(C(=O)O)N3C(=O)/C(=C/c4ccccn4)[C@H]3S(=O)(=O)C2)CC1 |
| 0.127 | O=C(/C=C/C1=C(C(=O)O)N2C(=O)/C(=C/c3ccccn3)[C@H]2S(=O)(=O)C1)Nc1c(F)c(F)c(F)c(F)c1F |
| 1.18 | O=C(/C=C/C1=C(C(=O)O)N2C(=O)/C(=C/c3ccccn3)[C@H]2S(=O)(=O)C1)NCC(F)(F)F |
| 0.11 | O=C(/C=C/C1=C(C(=O)O)N2C(=O)/C(=C/c3ccccn3)[C@H]2S(=O)(=O)C1)NCc1ccccc1 |
| 4.2 | NCCCNC(=O)/C=C/C1=C(C(=O)O)N2C(=O)/C(=C/c3ccccn3)[C@H]2S(=O)(=O)C1 |
| 0.011 | O=C(O)C1=C(F)CS(=O)(=O)[C@@H]2/C(=C\c3ccccn3)C(=O)N12 |
| 0.0029 | O=C(O)C1=C(Br)CS(=O)(=O)[C@@H]2/C(=C\c3ccccn3)C(=O)N12 |
| 0.824 | O=C(/C=C/C1=C(C(=O)O)N2C(=O)/C(=C/c3ccccn3)[C@H]2S(=O)(=O)C1)NC1CC1 |
| 0.035 | O=C(/C=C/C1=C(C(=O)O)N2C(=O)/C(=C/c3ccccn3)[C@H]2S(=O)(=O)C1)Nc1ccc(O)cc1 |
| 0.174 | O=C(O)C1=C(S(=O)(=O)c2ccccc2)CS(=O)(=O)[C@@H]2/C(=C\c3ccccn3)C(=O)N12 |
| 0.0403 | O=C(O)C1=C(c2cccs2)CS(=O)(=O)[C@@H]2/C(=C\c3ccccn3)C(=O)N12 |
| 0.31 | O=C(O)CNC(=O)/C=C/C1=C(C(=O)O)N2C(=O)/C(=C/c3ccccn3)[C@H]2S(=O)(=O)C1 |
| 0.032 | O=C(O)C1=C(C(=O)O)N2C(=O)/C(=C/c3ccccn3)[C@H]2S(=O)(=O)C1 |
| 0.128 | O=C(/C=C/C1=C(C(=O)O)N2C(=O)/C(=C/c3ccccn3)[C@H]2S(=O)(=O)C1)NO |
| 0.116 | O=C(O)C1=CCS(=O)(=O)[C@@H]2/C(=C\c3ccccn3)C(=O)N12 |
| 0.022 | NC(=O)/C=C/C1=C(C(=O)O)N2C(=O)/C(=C/c3ccccn3)[C@H]2S(=O)(=O)C1 |
| 0.003 | O=C(O)C1=C(Cl)CS(=O)(=O)[C@@H]2/C(=C\c3ccccn3)C(=O)N12 |
| 0.0055 | N=C(N)NCCNC(=O)/C=C/C1=C(C(=O)O)N2C(=O)/C(=C/c3ccccn3)[C@H]2S(=O)(=O)C1 |
| 0.212 | O=C(/C=C/C1=C(C(=O)O)N2C(=O)/C(=C/c3ccccn3)[C@H]2S(=O)(=O)C1)NCCO |
| 1.1 | NNC(=O)/C=C/C1=C(C(=O)O)N2C(=O)/C(=C/c3ccccn3)[C@H]2S(=O)(=O)C1 |
| 0.0217 | O=C(O)C1=C(Sc2ccccc2)CS(=O)(=O)[C@@H]2/C(=C\c3ccccn3)C(=O)N12 |

Source: ChEMBL document CHEMBL1135153, “Cephalosporin-derived inhibitors of beta-lactamase. Part 4: The C3 substituent” (Bioorg Med Chem Lett, 2002)
